Measured values taken from ChEMBL document CHEMBL1938277, “N-acylaminophenothiazines: neuroprotective agents displaying multifunctional activities for a potential treatment of Alzheimer's disease” (Eur J Med Chem, 2011).

Experiments:
SH-SY5Y [1] = assay: Neuroprotective activity against rotenone/oligomycin A-induced cell death in human SH-SY5Y cells assessed as LDH release at 1 uM treated 24 hrs before rotenone/oligomycin A challenge measured after 24 hrs relative to control; assay type: functional
SH-SY5Y [2] = assay: Neuroprotective activity against rotenone/oligomycin A-induced cell death in human SH-SY5Y cells assessed as LDH release at 0.3 uM after 24 hrs relative to control; assay type: functional
SH-SY5Y [3] = assay: Neuroprotective activity against H2O2-induced cell death in human SH-SY5Y cells assessed as LDH release at 10 uM incubated for 24 hrs before H2O2 challenge measured after 24 hrs relative to control; assay type: functional
SH-SY5Y [4] = assay: Neuroprotective activity against H2O2-induced cell death in human SH-SY5Y cells assessed as LDH release at 1 uM incubated for 24 hrs before H2O2 challenge measured after 24 hrs relative to control; assay type: functional
SH-SY5Y [5] = assay: Neuroprotective activity against H2O2-induced cell death in human SH-SY5Y cells assessed as LDH release at 3 uM incubated for 24 hrs before H2O2 challenge measured after 24 hrs relative to control; assay type: functional
Acetylcholinesterase = molecular target: T1, Acetylcholinesterase (Bos taurus, UniProt P23795); assay: biochemical
T1 sequence (P23795 whole entry): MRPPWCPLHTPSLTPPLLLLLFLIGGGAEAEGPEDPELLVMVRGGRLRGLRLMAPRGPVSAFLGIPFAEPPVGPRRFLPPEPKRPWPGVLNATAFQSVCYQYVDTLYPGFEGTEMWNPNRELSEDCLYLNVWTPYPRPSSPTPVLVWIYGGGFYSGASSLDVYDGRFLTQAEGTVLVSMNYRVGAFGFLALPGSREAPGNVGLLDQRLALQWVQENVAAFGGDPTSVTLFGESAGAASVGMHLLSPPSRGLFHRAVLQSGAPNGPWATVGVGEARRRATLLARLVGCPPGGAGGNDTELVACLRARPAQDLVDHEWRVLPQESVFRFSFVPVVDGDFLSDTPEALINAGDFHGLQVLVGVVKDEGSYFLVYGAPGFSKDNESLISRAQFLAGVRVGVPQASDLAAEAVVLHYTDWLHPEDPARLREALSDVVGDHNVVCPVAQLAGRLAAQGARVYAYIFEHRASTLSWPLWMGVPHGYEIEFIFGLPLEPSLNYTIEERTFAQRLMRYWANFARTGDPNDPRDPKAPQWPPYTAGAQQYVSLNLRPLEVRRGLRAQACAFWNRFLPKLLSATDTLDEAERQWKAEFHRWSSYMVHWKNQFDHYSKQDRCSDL
Description: Inhibition of AChE in bovine erythrocytes using acetylthiocholine as substrate by Ellman method

in vitro = conditions: PAMPA
Description: Permeability of the compound by PAMPA assay

SH-SY5Y [6] = assay: Neuroprotective activity against rotenone/oligomycin A-induced cell death in human SH-SY5Y cells assessed as LDH release at 0.1 uM treated 24 hrs before rotenone/oligomycin A challenge measured after 24 hrs relative to control; assay type: functional
SH-SY5Y [7] = assay: Antioxidant activity in human SH-SY5Y cells assessed as sequestering of rotenone/oligomycin A-induced mitochondrial free radicals at 0.3 uM after 120 mins by DCFH-DA assay; assay type: functional
SH-SY5Y [8] = assay: Neuroprotective activity against rotenone/oligomycin A-induced cell death in human SH-SY5Y cells assessed as LDH release at 0.3 uM treated 24 hrs before rotenone/oligomycin A challenge measured after 24 hrs relative to control; assay type: functional
SH-SY5Y [9] = assay: Neuroprotective activity against rotenone/oligomycin A-induced cell death in human SH-SY5Y cells assessed as LDH release at 1 uM after 24 hrs relative to control; assay type: functional
SH-SY5Y [10] = assay: Neuroprotective activity against H2O2-induced cell death in human SH-SY5Y cells assessed as LDH release at 30 uM incubated for 24 hrs before H2O2 challenge measured after 24 hrs relative to control; assay type: functional
SH-SY5Y [11] = assay: Cytotoxicity against human SH-SY5Y cells; assay type: cell-based
SH-SY5Y [12] = assay: Neuroprotective activity against rotenone/oligomycin A-induced cell death in human SH-SY5Y cells assessed as LDH release at 0.1 uM after 24 hrs relative to control; assay type: functional
Cholinesterase = Cholinesterase (Equus caballus, UniProt P81908)
Description: Inhibition of BuChE in horse serum using butyrylthiocholine as substrate by Ellman method

SH-SY5Y [13] = assay: Neuroprotective activity against rotenone/oligomycin A-induced cell death in human SH-SY5Y cells assessed as LDH release at 3 uM treated 24 hrs before rotenone/oligomycin A challenge measured after 24 hrs relative to control; assay type: functional
SH-SY5Y [14] = assay: Neuroprotective activity against okadaic acid-induced cell death in human SH-SY5Y cells assessed as LDH release at 1 uM treated 24 hrs before okadaic acid challenge measured after 24 hrs relative to control; assay type: functional
SH-SY5Y [15] = assay: Neuroprotective activity against amyloid beta 1 to 42-induced cell death in human SH-SY5Y cells assessed as increase in cell viability at 1 uM pre-incubated for 24 hrs before amyloid beta 1 to 42 challenge measured after 24 hrs by MTT assay relative to control; assay type: functional
SH-SY5Y [16] = assay: Neuroprotective activity against amyloid beta 1 to 42-induced cell death in human SH-SY5Y cells assessed as increase in cell viability at 3 uM pre-incubated for 24 hrs before amyloid beta 1 to 42 challenge measured after 24 hrs by MTT assay relative to control; assay type: functional
SH-SY5Y [17] = assay: Neuroprotective activity against okadaic acid-induced cell death in human SH-SY5Y cells assessed as LDH release at 0.3 uM treated 24 hrs before okadaic acid challenge measured after 24 hrs relative to control; assay type: functional
SH-SY5Y [18] = assay: Neuroprotective activity against rotenone/oligomycin A-induced cell death in human SH-SY5Y cells assessed as LDH release at […] after 24 hrs relative to control; assay type: functional
SH-SY5Y [19] = assay: Neuroprotective activity against FPL64176-induced toxicity in human SH-SY5Y cells assessed as increase in cell viability at 1 uM treated 24 hrs before FPL64176 challenge measured after 24 hrs by MTT assay relative to control; assay type: functional
SH-SY5Y [20] = assay: Neuroprotective activity against amyloid beta 1 to 42-induced cell death in human SH-SY5Y cells assessed as increase in cell viability at 0.3 uM pre-incubated for 24 hrs before amyloid beta 1 to 42 challenge measured after 24 hrs by MTT assay relative to control; assay type: functional
SH-SY5Y [21] = assay: Neuroprotective activity against FPL64176-induced toxicity in human SH-SY5Y cells assessed as increase in cell viability at 0.3 uM treated 24 hrs before FPL64176 challenge measured after 24 hrs by MTT assay relative to control; assay type: functional
SH-SY5Y [22] = assay: Neuroprotective activity against okadaic acid-induced cell death in human SH-SY5Y cells assessed as LDH release at 3 uM treated 24 hrs before okadaic acid challenge measured after 24 hrs relative to control; assay type: functional
SH-SY5Y [23] = assay: Neuroprotective activity against FPL64176-induced toxicity in human SH-SY5Y cells assessed as increase in cell viability at 10 uM treated 24 hrs before FPL64176 challenge measured after 24 hrs by MTT assay relative to control; assay type: functional
SH-SY5Y [24] = assay: Neuroprotective activity against amyloid beta 1 to 42-induced cell death in human SH-SY5Y cells assessed as increase in cell viability at 10 nM pre-incubated for 24 hrs before amyloid beta 1 to 42 challenge measured after 24 hrs by MTT assay relative to control; assay type: functional

Cholinesterase, sequence (P81908 whole entry): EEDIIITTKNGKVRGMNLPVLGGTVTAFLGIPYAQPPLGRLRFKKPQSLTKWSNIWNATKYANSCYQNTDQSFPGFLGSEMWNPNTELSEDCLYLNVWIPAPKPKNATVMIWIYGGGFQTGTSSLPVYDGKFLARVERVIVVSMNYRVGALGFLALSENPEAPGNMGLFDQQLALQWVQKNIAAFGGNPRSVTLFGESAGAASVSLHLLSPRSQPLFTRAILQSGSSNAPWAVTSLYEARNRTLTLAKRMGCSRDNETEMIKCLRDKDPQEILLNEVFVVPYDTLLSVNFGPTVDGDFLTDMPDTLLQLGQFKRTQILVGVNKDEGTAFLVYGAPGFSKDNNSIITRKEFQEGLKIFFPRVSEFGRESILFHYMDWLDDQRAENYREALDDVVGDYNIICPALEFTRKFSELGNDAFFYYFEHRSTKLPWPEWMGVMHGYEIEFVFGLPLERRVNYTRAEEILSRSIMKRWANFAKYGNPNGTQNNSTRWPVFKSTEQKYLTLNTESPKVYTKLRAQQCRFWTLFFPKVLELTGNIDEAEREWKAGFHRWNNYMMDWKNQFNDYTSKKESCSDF

Row | SMILES | Activity (SH-SY5Y [3]) | Activity (SH-SY5Y [4]) | Activity (SH-SY5Y [5]) | IC50 (Acetylcholinesterase) | Papp (in vitro) | Activity (SH-SY5Y [10]) | IC50 (Cholinesterase) | other results
1 | O=C(CCN1CCCC1)NN1c2ccccc2Sc2ccccc21 | 88% | 90.1% | 81.4% | > 100000 nM | 17.3 ×10⁻⁶ cm/s | 72.5% | 1400 nM | Activity (SH-SY5Y [1]): 16.5%; Activity (SH-SY5Y [2]): 63.7%; Activity (SH-SY5Y [6]): 58.8%; Activity (SH-SY5Y [7]): 23.8%; Activity (SH-SY5Y [8]): 42.4%; Activity (SH-SY5Y [9]): 52.6%; Activity (SH-SY5Y [11]): Non-toxic; Activity (SH-SY5Y [12]): 66.1%
2 | COc1ccc2c(c1)Sc1ccccc1N2NC(=O)CCN1CCCC1 | 0% | 17.8% | 11.8% | > 100000 nM | 8.7 ×10⁻⁶ cm/s | 0% | 800 nM | 
3 | CN(C)CC(=O)NN1c2ccccc2Sc2ccc(Cl)cc21 | 42.6% | 15.6% | 29.5% | > 100000 nM | 13.5 ×10⁻⁶ cm/s | 23.2% | 7100 nM | 
4 | CN1CCN(CCC(=O)NN2c3ccccc3Sc3cc([N+](=O)[O-])ccc32)CC1 | 46.2% | 41.3% | 46.5% | > 100000 nM | 14.6 ×10⁻⁶ cm/s | 31.7% | 1500 nM | 
5 | O=C(CN1CCCC1)NN1c2ccccc2Sc2cc(Cl)ccc21 | 79.9% | 54.6% | 57.7% | > 100000 nM | 14.9 ×10⁻⁶ cm/s | 69.5% | 1000 nM | Activity (SH-SY5Y [13]): 58.9%; Activity (SH-SY5Y [1]): 51.8%; Activity (SH-SY5Y [14]): 32%; Activity (SH-SY5Y [15]): 81.3%; Activity (SH-SY5Y [16]): 13.6%; Activity (SH-SY5Y [17]): 28.3%; Activity (SH-SY5Y [2]): 28.6%; Activity (SH-SY5Y [18]): 44.3%; Activity (SH-SY5Y [19]): 44.5%; Activity (SH-SY5Y [7]): 14.7%; Activity (SH-SY5Y [8]): 55%; Activity (SH-SY5Y [9]): 44.1%; Activity (SH-SY5Y [20]): 91.3%; Activity (SH-SY5Y [21]): 39.8%; Activity (SH-SY5Y [22]): 29%; Activity (SH-SY5Y [11]): Non-toxic; Activity (SH-SY5Y [23]): 36.3%
6 | COc1ccc2[nH]cc(CCNC(C)=O)c2c1 [MELATONIN] |  |  |  |  |  |  |  | Activity (SH-SY5Y [24]): 72%
7 | O=C(CN1CCCCC1)NN1c2ccccc2Sc2ccccc21 | 9.7% | 27.2% | 26.1% | > 100000 nM | 16.4 ×10⁻⁶ cm/s | 10.1% | 400 nM | 
8 | Cc1c(C)c2c(c(C)c1O)CCC(C)(C(=O)O)O2 (stereo not drawn) [TROLOX] |  |  |  |  |  | 57.7% |  | Activity (SH-SY5Y [13]): 65.1%; Activity (SH-SY5Y [18]): 63.7%; Activity (SH-SY5Y [7]): 27.8%
9 | CN(C)CC(=O)NN1c2ccccc2Sc2cc(Cl)ccc21 | 28.2% | 59.8% | 62.7% | > 100000 nM | 15.5 ×10⁻⁶ cm/s | 9.7% | 5000 nM | 
10 | CN1CCN(CCC(=O)NN2c3ccccc3Sc3ccccc32)CC1 | 22.8% | 82.9% | 34.5% | > 100000 nM | 17 ×10⁻⁶ cm/s | 6.3% | 1300 nM | 
11 | CN(C)CC(=O)NN1c2ccccc2Sc2ccccc21 | 38.6% | 30.5% | 26.3% | > 100000 nM | 18.3 ×10⁻⁶ cm/s | 22% | 1700 nM | 
